Measured values from patent publication EP4617261A1, “2,4,5-TRISUBSTITUTED PYRIMIDINE COMPOUND, PREPARATION METHOD THEREFOR, AND USE THEREOF” (Wenzhou Medical University, priority 2022, dated 2024).

What was measured:
MRC-5 = assay: MTT assay, cell proliferation, MRC-5; type: cell-based; settings: Homo sapiens, MRC5, MRC-5 cells, 72 h
Protocol: (§1) The effect of active compounds on cell proliferation was measured using an MTT assay. An experimental method was described as follows: the compounds under test were first dissolved in DMSO to prepare a stock solution, which was then diluted in gradient with a culture medium of the corresponding cells to prepare test samples, with a final concentration range of the compounds up to 20 µM. Cells in a logarithmic growth phase were seeded into 96-well cell culture plates at an appropriate density, and cultured overnight under corresponding culture conditions, and samples of the compound under test were added and continuously cultured for 72 h.

H1581 = assay: MTT assay, cell proliferation, H1581; type: cell-based; settings: Homo sapiens, NCI-H1581, H1581 cells, 72 h
Protocol: as §1

FGFR1 kinase = biological target: T1, FGFR1 kinase (Homo sapiens, UniProt P11362); assay: LANCE ULTRA Assay, inhibitory activity on FGFR1 kinase; type: biochemical; settings: for inhibition at 1 µM: read-out: In vitro FGFR1 kinase inhibition rate (%) (Concentration in 1000 nM), Concentration 1000 nM; for inhibition at 0.1 µM: read-out: In vitro FGFR1 kinase inhibition rate (%) (Concentration in 100 nM), Concentration 100 nM
T1 construct: purchased CARNA
Protocol: The inhibitory activity of the compounds on FGFR1 kinase was determined using a LANCE ULTRA Assay. The FGFR1 kinase was purchased from CARNA. Specific method was as follows: the compounds under test, adenosine triphosphate (ATP), specific substrate, and FGFR1 kinase were diluted with kinase diluent. A kinase reaction mixture contained FGFR1, ATP, substrate, HEPES (pH = 7.5), MgCl2, EGTA, and Tween-20. A group without any test compound served as a 100% phosphorylation control, and a group where EDTA was added immediately after the addition of FGFR1 kinase served as a 0% phosphorylation control. The kinase reaction mixture was incubated at room temperature for 1 h, and EDTA was added to terminate the reaction for 5 min, a specific antibody was then added, and the mixture was incubated at room temperature for another 1 h, and excitation light was detected using a PerkinElmer Envision Kinase Reader.

A549 = assay: MTT assay, cell proliferation, A549; type: cell-based; settings: Homo sapiens, A549 cells, 72 h
Protocol: as §1, with “An” for “The effect of active compounds on cell proliferation was measured using an MTT assay. An”

T1 sequence (P11362 22-822): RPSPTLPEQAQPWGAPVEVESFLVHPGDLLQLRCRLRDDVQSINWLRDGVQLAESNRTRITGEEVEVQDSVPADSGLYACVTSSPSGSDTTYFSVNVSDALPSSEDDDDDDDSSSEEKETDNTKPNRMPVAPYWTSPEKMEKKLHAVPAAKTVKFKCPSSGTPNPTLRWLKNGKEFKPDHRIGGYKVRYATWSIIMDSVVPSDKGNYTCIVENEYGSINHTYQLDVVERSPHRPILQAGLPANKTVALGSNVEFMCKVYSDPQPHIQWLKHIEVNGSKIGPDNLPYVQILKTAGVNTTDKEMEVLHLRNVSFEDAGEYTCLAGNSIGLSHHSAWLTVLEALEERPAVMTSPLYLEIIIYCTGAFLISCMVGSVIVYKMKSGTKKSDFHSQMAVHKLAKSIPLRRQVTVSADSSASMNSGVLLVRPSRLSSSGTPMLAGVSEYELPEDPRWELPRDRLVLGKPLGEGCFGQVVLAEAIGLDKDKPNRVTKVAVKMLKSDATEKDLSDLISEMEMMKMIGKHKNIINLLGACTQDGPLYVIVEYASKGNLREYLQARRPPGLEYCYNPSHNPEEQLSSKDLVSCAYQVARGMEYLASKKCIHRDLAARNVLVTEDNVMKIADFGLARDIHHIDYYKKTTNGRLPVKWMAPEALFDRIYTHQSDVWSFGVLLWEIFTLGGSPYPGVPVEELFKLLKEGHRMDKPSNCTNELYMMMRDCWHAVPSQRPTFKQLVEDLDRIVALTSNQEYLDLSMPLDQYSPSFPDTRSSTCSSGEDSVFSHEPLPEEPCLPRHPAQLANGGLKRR

inhibition at 0.1 µM (FGFR1 kinase) [%] | Structure (SMILES) | also measured
– | CCN1CCN(c2ccc(Nc3cc(N(C)C(=O)Nc4c(Cl)c(OC)cc(OC)c4Cl)ncn3)cc2)CC1 [BGJ398, reference compound] | IC50 (MRC-5): 144 µM; IC50 (H1581): 0.0867 ± 0.00151 µM
– | C=CC(=O)Nc1ccccc1Nc1nc(Nc2ccc(N3CCN(C)CC3)cc2)ncc1Cl [Compound 9] | inhibition at 1 µM (FGFR1 kinase): 94.9%
– | C=CC(=O)Nc1cccc(C)c1Nc1nc(Nc2ccc(N3CCN(C)CC3)cc2)ncc1F [Compound 10] | inhibition at 1 µM (FGFR1 kinase): 1.23%
1.4 | C=CC(=O)Nc1cccc(C)c1Nc1nc(Nc2ccc(N3CCN(C)CC3)cc2)ncc1Cl [Compound 11, N-(2-((5-chloro-2-((4-(4-methylpiperazine-1-yl)phenyl)amino)pyrimidine-4-yl)amino)-3-methylphenyl)acrylamide] | –
-1.1 | C=CC(=O)Nc1cccc(C)c1Nc1nc(Nc2ccc(N3CCN(C)CC3)cc2)ncc1C [Compound 12] | –
-0.1 | C=CC(=O)Nc1cccc(C)c1Nc1nc(Nc2ccc(N3CCN(C)CC3)cc2)ncc1OC [Compound 13] | –
11.4 | C=CC(=O)Nc1cccc(C)c1Nc1nc(Nc2ccc(N3CCN(C)CC3)cc2)ncc1C(F)(F)F [Compound 14] | –
43 | C=CC(=O)Nc1ccc(CCNc2nc(Nc3ccc(N4CCN(C)CC4)cc3)ncc2F)cc1 [Compound 17] | –
5.5 | C=CC(=O)Nc1ccc(CNc2nc(Nc3ccc(N4CCN(C)CC4)cc3)ncc2F)cc1 [Compound 18] | –
66.4 | C=CC(=O)Nc1ccc(CCNc2nc(Nc3ccc(N4CCN(C)CC4)cc3)ncc2Cl)cc1 [Compound 33, N-(4-(2-((5-chloro-2-((4-(4-methylpiperazine-1-yl)phenyl)amino)pyrimidine-4-yl)amino)ethyl)phenyl)acrylamide] | IC50 (FGFR1 kinase; read-out: In vitro FGFR1 kinase IC50 value): 60.7 nM
50.3 | C=CC(=O)NC(=O)c1ccc(Nc2nc(Nc3ccc(N4CCN(C)CC4)cc3)ncc2Cl)cc1Cl [Compound 38, N-acryloyl-2-chloro-4-((5-chloro-2-((4-(4-methylpiperazine-1-yl)phenyl)amino)pyrimidine-4-yl)amino)benzamide] | –
– | C=CC(=O)Nc1ccc(Nc2nc(Nc3ccc(N4C[C@@H](C)N[C@@H](C)C4)c(OC)c3)ncc2Cl)cc1Cl [Compound 46] | IC50 (MRC-5): 0.84 ± 0.07 µM; IC50 (H1581): 0.018 ± 0.00178 µM; IC50 (A549): 0.38 ± 0.1 µM
